Experimental data: US5716928A, “Use of essential oils to increase bioavailability of oral pharmaceutical compounds” (priority 1995, dated 1998)

Test system: rat cytochrome P450 3A
Settings: for % inhibition of cyclosporine metabolism, repeat 0.0001(SD) (Table 2) / % inhibition of cyclosporine metabolism, 0.0001% (Table 2): oil ingredient 0.0001 wt. %; for % inhibition of cyclosporine metabolism, repeat 0.0001(SD) (Table 2): repeat assay(s), SD in parentheses; for % inhibition of cyclosporine metabolism, 0.0001% (Table 2) / % inhibition of cyclosporine metabolism, 0.001% (Table 2) / % inhibition of cyclosporine metabolism, 0.01% (Table 2): from solvent baseline; for % inhibition of cyclosporine metabolism, 0.001% (Table 2): oil ingredient 0.001 wt. %; for % inhibition of cyclosporine metabolism, 0.01% (Table 2): oil ingredient 0.01 wt. %

Compound: CC12CCC(CC1=O)C2(C)C (racemic) [Camphor-(±), 1,7,7-Trimethylbicyclo [2.2.1] heptan-2-one]
- % inhibition of cyclosporine metabolism, repeat 0.001 (SD) (Table 2) (microsomes): 53(3) %

Compound: C=CC(C)(O)CCC=C(C)C (racemic) [Linalool-(±), 3,7-Dimethyl-1,6-octadien-3-ol]
- % inhibition of cyclosporine metabolism, repeat 0.0001(SD) (Table 2): -7(9) %
- % inhibition of cyclosporine metabolism, 0.0001% (Table 2): 41%
- % inhibition of cyclosporine metabolism, 0.001% (Table 2): 72.0%
- % inhibition of cyclosporine metabolism, 0.01% (Table 2): 85%

Compound: CCC=CCC1C(=O)CCC1CC(=O)OC (racemic) [Methyl Jasmonate-(±), Methyl-3-oxo-2-(2-pentenyl)-cyclopentane acetate]
- % inhibition of cyclosporine metabolism, 0.0001% (Table 2): -27%
- % inhibition of cyclosporine metabolism, 0.001% (Table 2): 65%

Compound: C=C1C2CCC(C2)C1(C)C (single isomer, unassigned) [Camphene-(+), 2,2-Dimethyl-3-methylenebicyclo[2.2.1]heptane]
- % inhibition of cyclosporine metabolism, 0.0001% (Table 2): -49%
- % inhibition of cyclosporine metabolism, 0.001% (Table 2): 12.4%

Compound: C=C(C)C1CC=C(C)C(O)C1 (single isomer, unassigned) [Carveol-(-), p-Mentha-6,8-dien-2-ot]
- % inhibition of cyclosporine metabolism, 0.0001% (Table 2): 2%
- % inhibition of cyclosporine metabolism, 0.001% (Table 2): 60%

Compound: CC=C(C)C=CC=C(C)C [Allo Ocimene, 2,6-Dimethyl-2,4,6-octatriene]
- % inhibition of cyclosporine metabolism, 0.0001% (Table 2): 6%
- % inhibition of cyclosporine metabolism, 0.001% (Table 2): 22%

Compound: C/C=C/c1ccc(OC)cc1 [Anethole, trans-, 4-Propenylanisole]
- % inhibition of cyclosporine metabolism, 0.001% (Table 2): 53%
- % inhibition of cyclosporine metabolism, 0.01% (Table 2): 100%

Compound: O=C(/C=C/c1ccccc1)OCc1ccccc1 [Benzyl Cinnamate, Benzyl 3-phenylpropenoic acid]
- % inhibition of cyclosporine metabolism, 0.0001% (Table 2): 7%
- % inhibition of cyclosporine metabolism, 0.001% (Table 2): -45%

Compound: COc1cc(CNC(=O)CCCC/C=C/C(C)C)ccc1O [Capsaicin, trans-8-Methyl-N-vanillyl-6 nonenamide]
- % inhibition of cyclosporine metabolism, 0.0001% (Table 2): 27%
- % inhibition of cyclosporine metabolism, 0.001% (Table 2): 68%

Compound: Cc1ccc(C(C)C)cc1O [Carvacrol, 5-isoPropyl-2-methylphenol]
- % inhibition of cyclosporine metabolism, 0.0001% (Table 2): 11%
- % inhibition of cyclosporine metabolism, 0.001% (Table 2): 93%
- % inhibition of cyclosporine metabolism, 0.01% (Table 2): 97%

Compound: C=C(C)[C@@H]1CC=C(C)C(=O)C1 [Carvone-(R)-(-), p-Mentha-6,8-dien-2-one]
- % inhibition of cyclosporine metabolism, 0.0001% (Table 2): 27%
- % inhibition of cyclosporine metabolism, 0.001% (Table 2): 69%
- % inhibition of cyclosporine metabolism, 0.01% (Table 2): 100%

Compound: C=C(C)[C@H]1CC=C(C)C(=O)C1 [Carvone-(S)-(+), p-Mentha-6,8-dien-2-one]
- % inhibition of cyclosporine metabolism, 0.0001% (Table 2): 30%
- % inhibition of cyclosporine metabolism, 0.001% (Table 2): 70.5%

Compound: C=C1CC/C=C(\C)CC[C@@H]2[C@@H]1CC2(C)C [Caryophyllene, trans-(-), β Caryophyllene]
- % inhibition of cyclosporine metabolism, 0.0001% (Table 2): 26%
- % inhibition of cyclosporine metabolism, 0.001% (Table 2): 85%

Compound: O=C/C=C/c1ccccc1 [Cinnamic Aldehyde, trans-, 3-Phenylpropenaldehyde]
- % inhibition of cyclosporine metabolism, 0.001% (Table 2): 29.0%
- % inhibition of cyclosporine metabolism, 0.01% (Table 2): 78%

Compound: CC(C)=CCC/C(C)=C/C=O [Citral]
- % inhibition of cyclosporine metabolism, 0.0001% (Table 2): 44%
- % inhibition of cyclosporine metabolism, 0.001% (Table 2): 54%
- % inhibition of cyclosporine metabolism, 0.01% (Table 2): 99%

Compound: CC(C)=CCCC(C)CCO (stereo not drawn) [Citronellol-(DL)-(β), 3,7-Dimethyl-6-octen-1-ol]
- % inhibition of cyclosporine metabolism, repeat 0.0001(SD) (Table 2): 35(4) %
- % inhibition of cyclosporine metabolism, 0.0001% (Table 2): 41%
- % inhibition of cyclosporine metabolism, 0.001% (Table 2): 86%
- % inhibition of cyclosporine metabolism, 0.01% (Table 2): 95%

Compound: C=CCc1ccc(OC)cc1 [Estragole, 4-Allylanisole]
- % inhibition of cyclosporine metabolism, 0.0001% (Table 2): 7%
- % inhibition of cyclosporine metabolism, 0.001% (Table 2): 69.2%
- % inhibition of cyclosporine metabolism, 0.01% (Table 2): 100%

Compound: CCOC(=O)/C=C/c1ccccc1 [Ethyl Cinnamate, trans-, Ethyl 3-phenylpropenoic acid]
- % inhibition of cyclosporine metabolism, 0.0001% (Table 2): -13%
- % inhibition of cyclosporine metabolism, 0.001% (Table 2): -16%

Compound: CCOc1cc(C=O)ccc1O [Ethyl Vanillin, 3-Ethoxy-4-hydroxybenzaledhyde]
- % inhibition of cyclosporine metabolism, 0.01% (Table 2): 58%

Compound: C=CCc1ccc(O)c(OC)c1 [Eugenol, 4-Allyl-2-methoxyphenol]
- % inhibition of cyclosporine metabolism, 0.0001% (Table 2): 9.8%
- % inhibition of cyclosporine metabolism, 0.001% (Table 2): 66%
- % inhibition of cyclosporine metabolism, 0.01% (Table 2): 100%

Compound: CC(C)=CCC/C(C)=C/CC/C(C)=C/CO [Farnesol. trans-, trans-, 3,7,11-Trimethyl-2,6,10-dodecatrien-1-ol]
- % inhibition of cyclosporine metabolism, 0.0001% (Table 2): 49%
- % inhibition of cyclosporine metabolism, 0.001% (Table 2): 82%

Compound: CC1(C)[C@H]2CC[C@](C)(C2)[C@H]1O [Fenchol-(1R)-endo-(+), 1,3,3-Trimethylbicyclo [2.2.1] heptan-2-ol]
- % inhibition of cyclosporine metabolism, 0.0001% (Table 2): 18%
- % inhibition of cyclosporine metabolism, 0.001% (Table 2): 74%
- % inhibition of cyclosporine metabolism, 0.01% (Table 2): 100%

Compound: CC1(C)C(=O)[C@]2(C)CC[C@H]1C2 [Fenchone-(1R)-(-), 1,3,3-Trimethylbicyclo [2.2.1] heptan-2-one]
- % inhibition of cyclosporine metabolism, 0.0001% (Table 2): 14%
- % inhibition of cyclosporine metabolism, 0.001% (Table 2): 38%

Compound: CC(=O)OC/C=C(\C)CCC=C(C)C [Geranyl Acetate, trans-3,7-Dimethyl-2,6-octadien-1-yl acetate]
- % inhibition of cyclosporine metabolism, 0.001% (Table 2): 51.5%
- % inhibition of cyclosporine metabolism, 0.01% (Table 2): 73%

Compound: CC/C=C\CC1=C(C)CCC1=O [Jasmone, cis-, 3-Methyl-2-(2-pentenyl)-2-cyclopenten-1-one]
- % inhibition of cyclosporine metabolism, 0.0001% (Table 2): 16.0%
- % inhibition of cyclosporine metabolism, 0.001% (Table 2): 68%

Compound: CC(=O)N1CCN(c2ccc(OCC3COC(Cn4ccnc4)(c4ccc(Cl)cc4Cl)O3)cc2)CC1 (stereo not drawn) [Ketoconazole, reference compound]
- % inhibition of cyclosporine metabolism, reference compound at 0.000001% (Table 3) (0.000001 %): 8%
- % inhibition of cyclosporine metabolism, reference compound at 0.000005% (Table 3) (0.000005 %): 20%
- % inhibition of cyclosporine metabolism, reference compound at 0.00001% (Table 3) (0.00001 %): 42%
- % inhibition of cyclosporine metabolism, reference compound at 0.00005% (Table 3) (0.00005 %): 100%

Compound: C=C(C)[C@H]1CC=C(C)CC1 [Limonene-(R)-(+), p-Mentha-1,8-diene]
- % inhibition of cyclosporine metabolism, 0.001% (Table 2): 20%
- % inhibition of cyclosporine metabolism, 0.01% (Table 2): 84%

Compound: C=C(C)[C@@H]1CC=C(C)CC1 [Limonene-(S)-(-), p-Mentha-1,8-diene]
- % inhibition of cyclosporine metabolism, 0.001% (Table 2): 30%
- % inhibition of cyclosporine metabolism, 0.01% (Table 2): 82.3%

Compound: C=CC(C)(CCC=C(C)C)OC(C)=O (stereo not drawn) [Linalyl Acetate, 3,7-Dimethyl-1,6-octadien-3-yl acetate]
- % inhibition of cyclosporine metabolism, 0.001% (Table 2): 55.8%
- % inhibition of cyclosporine metabolism, 0.01% (Table 2): 100%

Compound: COC(=O)c1ccccc1N [Mcthyl Anthranilate, Methyl 2-aminobenzoate]
- % inhibition of cyclosporine metabolism, 0.0001% (Table 2): -7%
- % inhibition of cyclosporine metabolism, 0.001% (Table 2): 23%

Compound: CC(C)[C@@H]1CC[C@@H](C)CC1=O [Menthone-(-), p-Menthan-3-one]
- % inhibition of cyclosporine metabolism, 0.0001% (Table 2): 14%
- % inhibition of cyclosporine metabolism, 0.001% (Table 2): 52%

Compound: C=CC(=C)CCC=C(C)C [Myrcene-β, 7-Methyl-3-methylene-1,6-octadiene]
- % inhibition of cyclosporine metabolism, 0.0001% (Table 2): 0%
- % inhibition of cyclosporine metabolism, 0.001% (Table 2): 13%

Compound: C=C1CC[C@H]2C[C@@H]1C2(C)C [Pinene-(1S)-(-)-β, 6,6-Dimethyl-2-methylenebicyclo[3.1.1]heptane]
- % inhibition of cyclosporine metabolism, 0.0001% (Table 2): -10%
- % inhibition of cyclosporine metabolism, 0.001% (Table 2): 60%
- % inhibition of cyclosporine metabolism, 0.01% (Table 2): 88%

Compound: CC(C)=C1CC[C@@H](C)CC1=O [Pulegone-(R)-(+), p-Menth-4(8)-en-3-one]
- % inhibition of cyclosporine metabolism, 0.0001% (Table 2): -17%
- % inhibition of cyclosporine metabolism, 0.001% (Table 2): 31%

Compound: CC1=CCC(O)(C(C)C)CC1 (stereo not drawn) [Terpinen-4-ol, p-Menth-1-en-4-ol]
- % inhibition of cyclosporine metabolism, 0.0001% (Table 2): 3.81%
- % inhibition of cyclosporine metabolism, 0.001% (Table 2): 80%
- % inhibition of cyclosporine metabolism, 0.01% (Table 2): 100%

Compound: CC1=CC=C(C(C)C)CC1 [Terpinene-α, p-Mentha-1,3-diene]
- % inhibition of cyclosporine metabolism, 0.0001% (Table 2): -6%
- % inhibition of cyclosporine metabolism, 0.001% (Table 2): 28%

Compound: CC1=CCC(C(C)(C)O)CC1 (stereo not drawn) [Terpineol-α, p-Menth-1-en-8-ol]
- % inhibition of cyclosporine metabolism, 0.0001% (Table 2): 13.4%
- % inhibition of cyclosporine metabolism, 0.001% (Table 2): 86%
- % inhibition of cyclosporine metabolism, 0.01% (Table 2): 100%
